According to ChEMBL document CHEMBL3734714, “Synthesis and cytostatic activity of 7-arylsulfanyl-7-deazapurine bases and ribonucleosides” (Medchemcomm, 2015):
Activity calls are given as the source filed them. The rule behind the calls is not given here.

Assays:
[1] = system: A549; assay: Cytostatic activity against human A549 cells after 3 days by MTT assay; type: functional, cell-based; conditions: A549, 72 h
[2] = system: CCRF-CEM; assay: Cytostatic activity against human CCRF-CEM cells after 3 days by MTT assay; type: functional, cell-based; conditions: 72 h
[3] = Cytostatic activity against human CEM/DNR cells after 3 days by MTT assay; type: functional, cell-based; conditions: 72 h
[4] = Cytostatic activity against human HCT116 cells after 3 days by MTT assay; type: functional, cell-based; conditions: HCT-116, 72 h
[5] = system: K562; assay: Cytostatic activity against human K562 cells after 3 days by MTT assay; type: functional, cell-based; conditions: K562, 72 h
[6] = Cytostatic activity against human K562-TAX cells after 3 days by MTT assay; type: functional, cell-based; conditions: 72 h
[7] = system: HepG2; assay: Cytostatic activity against human HepG2 cells assessed as cell viability after 6 days by XTT assay; type: functional, cell-based; conditions: HepG2, 144 h
[8] = system: HL-60; assay: Cytostatic activity against human HL60 cells assessed as cell viability after 6 days by XTT assay; type: functional, cell-based; conditions: HL-60, 144 h
[9] = system: HeLa S3; assay: Cytostatic activity against human HeLaS3 cells assessed as cell viability after 6 days by XTT assay; type: functional, cell-based; conditions: HeLa S3, 144 h
[10] = system: BJ; assay: Cytostatic activity against human BJ cells after 3 days by MTT assay; type: ADME, cell-based; conditions: 72 h
[11] = system: MRC5; assay: Cytostatic activity against human MRC5 cells after 3 days by MTT assay; type: ADME, cell-based; conditions: MRC5, 72 h
[12] = Cytostatic activity against p53 deficient human HCT116 cells after 3 days by MTT assay; type: functional, cell-based; conditions: HCT-116, 72 h
[13] = system: Hepatitis C virus; assay: Antiviral activity against HCV1B; type: functional, organism-based; conditions: Hepacivirus hominis; genotype 1b
[14] = system: Hepatitis C virus; assay: Antiviral activity against HCV2A; type: functional, organism-based; conditions: Hepacivirus hominis; genotype 2a
[15] = Antiviral activity against RSV; type: functional, organism-based
[16] = system: Candida; assay: Antifungal activity against Candida sp.; type: functional, organism-based

IC50 [1] | IC50 [2] | IC50 [5] | IC50 [7] | IC50 [8] | IC50 [9] | Compound | IC50 [3] | IC50 [4] | IC50 [6] | IC50 [10] | IC50 [11] | IC50 [12] | Activity [13] | Activity [14] | Activity [15] | Activity [16]
16.2 µM | 10.6 µM | 5.14 µM | > 25 µM | 21.1 µM | > 25 µM | c1csc(Sc2c[nH]c3ncnc(-c4cccs4)c23)c1 | 17.7 µM | 13 µM | 21.7 µM | 23.4 µM | 54.5 µM | 5.06 µM | inactive | inactive | inactive | inactive
> 50 µM | > 50 µM | 14 µM | > 25 µM | > 25 µM | > 25 µM | Cc1ncnc2[nH]cc(Sc3cccs3)c12 | > 50 µM | 38.1 µM | 64.6 µM | > 150 µM | 136 µM | 29.1 µM | inactive | inactive | inactive | inactive
21.5 µM | 18.2 µM | > 50 µM | > 25 µM | > 25 µM | 23.9 µM | COc1ncnc2[nH]cc(Sc3cccs3)c12 | > 50 µM | 17.2 µM | 44 µM | 123 µM | 148 µM | > 50 µM | inactive | inactive | inactive | inactive
22.9 µM | 34 µM | 23.1 µM | > 25 µM | > 25 µM | > 25 µM | Nc1ncnc2c1c(Sc1ccccc1)cn2[C@@H]1O[C@H](CO)[C@@H](O)[C@H]1O | > 50 µM | 20.8 µM | 29.6 µM | 67.9 µM | 67.7 µM | 22.4 µM | inactive | inactive | inactive | inactive
28.6 µM | 14.7 µM | 4.95 µM | > 25 µM | 13.5 µM | 17.6 µM | CNc1ncnc2[nH]cc(Sc3cccs3)c12 | 26.2 µM | 19 µM | 21 µM | 132 µM | 148 µM | 45.3 µM | inactive | inactive | inactive | inactive
19.8 µM | 14.6 µM | 3.83 µM | > 25 µM | > 25 µM | > 25 µM | CN(C)c1ncnc2[nH]cc(Sc3cccs3)c12 | 35.2 µM | 11 µM | 22.1 µM | 145 µM | > 150 µM | 27.5 µM | inactive | inactive | inactive | inactive
43.8 µM | 64.7 µM | 23.4 µM | > 25 µM | > 25 µM | > 25 µM | Nc1ncnc2c1c(Sc1cccs1)cn2[C@@H]1O[C@H](CO)[C@@H](O)[C@H]1O | > 100 µM | 36.7 µM | 55.8 µM | 93.6 µM | 138 µM | 23.2 µM | inactive | inactive | inactive | inactive
22.8 µM | 16.7 µM | 17.9 µM | > 25 µM | 13.9 µM | 17.9 µM | Nc1ncnc2[nH]cc(Sc3cccs3)c12 | 20.3 µM | 22.8 µM | 17.9 µM | > 150 µM | 136 µM | > 50 µM | inactive | inactive | inactive | inactive
11.4 µM | 7.73 µM | 4.26 µM | > 25 µM | 7.63 µM | 8.49 µM | c1coc(-c2ncnc3[nH]cc(Sc4cccs4)c23)c1 | 20.8 µM | 6.75 µM | 18.9 µM | 22.1 µM | 32.9 µM | 19.5 µM | inactive | inactive | inactive | inactive
